The results in this text go back to article PMC4022547 (Molecular Brain, 2014).

Assay [1] deals with hα6(A112V) + WT hβ2 + hβ3^V9’S nAChR (Homo sapiens, UniProt P17787+Q15825, A112V). As to conditions: 100 μM nicotine; 3 days after cRNA injection. As to the method:
(§1) We planned to introduce identical amounts of cRNA, presumably producing equal amounts of each subunit protein, into oocytes largely due to lack of information about the levels of mRNA for each subunits that compose α6*-nAChRs in neurons or other cells. Concentrations of cRNAs for each nAChR α and β subunits (WT, mutant or variant) were adjusted to 500 ng μL^−1. We provisionally assumed that hα6 or its variants in association with hβ2 or hβ4 subunits would form complexes having 2:3 and/or 3:2 ratios of the indicated subunits and that oocytes also injected with WT or mutant form of β3 subunits (i.e., β3^V9’S) would express nAChR with 2:2:1 ratios of α:β:(β3 or β3^V9’S) subunits. For expression of binary nAChRs (i.e., two subunit containing nAChRs; α + β but not β3) cRNA mixtures were prepared by mixing 1 μL of cRNA for each subunit and an additional μL of RNAse free water (i.e., total volume 3 μL). Similarly for expression of ternary nAChRs [i.e., three subunit containing nAChRs; (α + β) + (β3 or β3^V9’S)] cRNA mixtures were prepared by mixing 1 μL of cRNA for each subunit. Several preparations of each mixture were prepared and stored at −80°C until further use. Injection of 138 nL of cRNA, out of 3 μL cRNA mixtures, into each oocyte would deliver ~23 ng of cRNA for each subunit whether binary or ternary nAChRs are expressed.
(§2) Two to 5 days after injection, oocytes were placed in a small-volume chamber and continuously perfused with OR2. The chamber was grounded through an agarose bridge. The oocytes were voltage-clamped at −70 mV (unless otherwise noted) to measure agonist or antagonist induced currents using Axoclamp 900A and pClamp 10.2 software (Molecular Devices, Sunnyvale, CA). The current signal was low-pass filtered at 10 Hz with the built-in low-pass Bessel filter in the Axoclamp 900A and digitized at 20 Hz with Axon Digidata1440A and pClamp10. […] Drugs (agonists and antagonists) were prepared daily in OR2. Drug was applied using a Valvelink 8.2 perfusion system (Automate scientific, Berkeley, CA). […] Then for the purpose of comparison electrophysiological recordings were performed in a given day in a given batch of oocytes following the same order of injections. […] All hβ4*-nAChR recordings were done in similar conditions to facilitate comparisons between hα6hβ4- and hα6hβ4hβ3-nAChRs. All electrophysiological measurements were conducted or checked in at least two batches of oocytes.
(§3) Raw data was collected and processed in part using pClamp 10.2 (Molecular Devices, Sunnyvale, CA), Origin 7.5 (OriginLab Corporation, Northampton, MA) and a spreadsheet (Excel; Microsoft, Bellevue, WA). Peak current amplitudes (Imax) are reported as mean ± SEM (for results from at least three oocytes, i.e., n = 3).

Assay [2] has as its target hα6 + WT hβ2 + hβ3^V9’S nAChR (Homo sapiens, UniProt P17787+Q15825). Particulars: 100 μM nicotine; 3 days after cRNA injection. On the procedure: as §1, §2, §3
The target of assay [3] is hα6(D57N) + hβ4 + hβ3 nAChR (Homo sapiens, UniProt P30926+Q15825, D57N). Particulars: nicotine. On the procedure:
as §1, §2, §3

Assay [4] has as its target hα6(R87C) + hβ4 + hβ3 nAChR (Homo sapiens, UniProt P30926+Q15825, R87C). As to conditions: nicotine. On the procedure:
as §1, §2, §3

Assay [5] has as its target hα6 + codon optimized hβ2 + hβ3^V9’S nAChR (Homo sapiens, UniProt P17787+Q15825). Particulars: 100 μM nicotine. As to the method: as §1, §2, §3
Assay [6] has as its target hα6(N171K) + WT hβ2 + hβ3^V9’S nAChR (Homo sapiens, UniProt P17787+Q15825, N171K). As to conditions: nicotine. On the procedure:
as §1, §2, §3

Assay [7] has as its target hα6(D92E) + codon optimized hβ2 + hβ3^V9’S nAChR (Homo sapiens, UniProt P17787+Q15825, D92E). As to conditions: 100 μM nicotine; oocytes clamped at −70 mV. On the procedure:
as §1, §2, §3

Assay [8] has as its target hα6(A112V) + hβ4 + hβ3 nAChR (Homo sapiens, UniProt P30926+Q15825, A112V). Particulars: 100 μM nicotine; oocytes clamped at −70 mV. As to the method:
as §1, §2, §3

The target in assay [9] is hα6(D92E) + hβ4 + hβ3 nAChR (Homo sapiens, UniProt P30926+Q15825, D92E). Particulars: 100 μM nicotine; oocytes clamped at −70 mV. On the procedure:
as §1, §2, §3

Assay [10] deals with hα6(N46K) + codon optimized hβ2 + hβ3^V9’S nAChR (Homo sapiens, UniProt P17787+Q15825, N46K). Particulars: 100 μM nicotine; oocytes clamped at −70 mV. On the procedure: as §1, §2, §3
Sequence of hα6(N46K) + codon optimized hβ2 + hβ3^V9’S nAChR (Q15825 26-494 N46K): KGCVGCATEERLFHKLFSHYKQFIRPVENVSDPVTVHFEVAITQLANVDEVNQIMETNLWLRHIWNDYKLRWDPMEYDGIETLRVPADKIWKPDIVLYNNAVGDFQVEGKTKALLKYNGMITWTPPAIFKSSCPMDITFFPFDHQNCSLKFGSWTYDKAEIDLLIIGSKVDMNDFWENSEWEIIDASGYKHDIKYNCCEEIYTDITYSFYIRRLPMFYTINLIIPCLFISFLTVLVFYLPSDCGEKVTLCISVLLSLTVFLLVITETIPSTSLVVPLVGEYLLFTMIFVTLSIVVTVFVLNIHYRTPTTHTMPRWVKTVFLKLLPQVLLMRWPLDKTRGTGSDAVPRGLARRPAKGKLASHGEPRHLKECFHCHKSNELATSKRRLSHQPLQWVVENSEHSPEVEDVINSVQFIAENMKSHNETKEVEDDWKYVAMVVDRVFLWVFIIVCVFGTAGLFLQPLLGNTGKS
Sequence of hα6(N46K) + codon optimized hβ2 + hβ3^V9’S nAChR (P17787 26-502): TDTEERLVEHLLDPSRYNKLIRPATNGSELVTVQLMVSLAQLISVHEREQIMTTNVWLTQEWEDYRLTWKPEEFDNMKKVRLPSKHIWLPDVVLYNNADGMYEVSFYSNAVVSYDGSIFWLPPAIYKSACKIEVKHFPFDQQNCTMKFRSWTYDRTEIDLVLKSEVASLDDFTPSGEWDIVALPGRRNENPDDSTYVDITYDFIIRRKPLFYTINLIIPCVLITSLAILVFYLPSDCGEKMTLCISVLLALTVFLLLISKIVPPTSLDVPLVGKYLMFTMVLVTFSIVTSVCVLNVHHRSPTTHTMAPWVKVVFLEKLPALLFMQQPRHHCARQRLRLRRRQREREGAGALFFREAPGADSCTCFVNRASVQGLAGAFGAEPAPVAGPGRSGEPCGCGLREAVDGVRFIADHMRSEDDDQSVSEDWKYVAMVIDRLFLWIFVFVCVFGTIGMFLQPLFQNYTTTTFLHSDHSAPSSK
Sequence of hα6(N46K) + codon optimized hβ2 + hβ3^V9’S nAChR (Q05901 25-458 V273S partner limits assumed): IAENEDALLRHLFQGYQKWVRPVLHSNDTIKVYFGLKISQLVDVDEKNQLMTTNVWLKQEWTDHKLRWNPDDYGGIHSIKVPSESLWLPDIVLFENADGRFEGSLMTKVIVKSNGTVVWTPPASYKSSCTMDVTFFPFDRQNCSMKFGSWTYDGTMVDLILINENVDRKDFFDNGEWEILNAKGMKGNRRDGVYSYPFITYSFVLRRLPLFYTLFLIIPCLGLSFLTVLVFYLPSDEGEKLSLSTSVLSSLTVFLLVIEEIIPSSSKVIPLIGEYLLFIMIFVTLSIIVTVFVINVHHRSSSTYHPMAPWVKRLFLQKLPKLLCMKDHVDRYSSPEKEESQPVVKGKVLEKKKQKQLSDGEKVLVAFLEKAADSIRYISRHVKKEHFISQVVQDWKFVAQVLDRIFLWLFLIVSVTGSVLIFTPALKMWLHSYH
Assay [11] has as its target hα6(S43P) + codon optimized hβ2 + hβ3^V9’S nAChR (Homo sapiens, UniProt P17787+Q15825, S43P). Particulars: 100 μM nicotine; oocytes clamped at −70 mV. On the procedure:
as §1, §2, §3

The next assay addresses hα6(N46K) + hβ4 nAChR (Homo sapiens, UniProt P30926+Q15825, N46K). As to conditions: 100 μM nicotine; oocytes clamped at −70 mV. On the procedure:
as §1, §2, §3

Assay [12] has as its target hα6(I226T) + codon optimized hβ2 + hβ3^V9’S nAChR (Homo sapiens, UniProt P17787+Q15825, I226T). As to conditions: 100 μM nicotine; oocytes clamped at −70 mV. As to the method: as §1, §2, §3
The target in a further assay is hα6(A112V) + hβ4 nAChR (Homo sapiens, UniProt P30926+Q15825, A112V). As to conditions: 100 μM nicotine; oocytes clamped at −70 mV. On the procedure: as §1, §2, §3
The target of assay [13] is hα6(D199Y) + codon optimized hβ2 + hβ3^V9’S nAChR (Homo sapiens, UniProt P17787+Q15825, D199Y). As to conditions: 100 μM nicotine; oocytes clamped at −70 mV. On the procedure: as §1, §2, §3
For assay [14], the target named is hα6(N171K) + hβ4 + hβ3 nAChR (Homo sapiens, UniProt P30926+Q15825, N171K). Particulars: nicotine. As to the method: as §1, §2, §3
Assay [15] has as its target hα6(D92E) + WT hβ2 + hβ3^V9’S nAChR (Homo sapiens, UniProt P17787+Q15825, D92E). As to conditions: nicotine. As to the method: as §1, §2, §3
In a further assay the target is hα6(D92E) + hβ4 nAChR (Homo sapiens, UniProt P30926+Q15825, D92E). As to conditions: 100 μM nicotine; oocytes clamped at −70 mV. As to the method: as §1, §2, §3

Several values for one entry are separate records, joined by “and”; a condition that tells them apart may be missing. Equal values may be shown once.

Sequence of hα6 + WT hβ2 + hβ3^V9’S nAChR (Q15825 26-494): as the sequence (Q15825 26-494 N46K) above, with K21N counted along it
Sequence of hα6 + WT hβ2 + hβ3^V9’S nAChR (P17787 26-502): as the sequence (P17787 26-502) above
Sequence of hα6 + WT hβ2 + hβ3^V9’S nAChR (Q05901 22-458 V273S partner): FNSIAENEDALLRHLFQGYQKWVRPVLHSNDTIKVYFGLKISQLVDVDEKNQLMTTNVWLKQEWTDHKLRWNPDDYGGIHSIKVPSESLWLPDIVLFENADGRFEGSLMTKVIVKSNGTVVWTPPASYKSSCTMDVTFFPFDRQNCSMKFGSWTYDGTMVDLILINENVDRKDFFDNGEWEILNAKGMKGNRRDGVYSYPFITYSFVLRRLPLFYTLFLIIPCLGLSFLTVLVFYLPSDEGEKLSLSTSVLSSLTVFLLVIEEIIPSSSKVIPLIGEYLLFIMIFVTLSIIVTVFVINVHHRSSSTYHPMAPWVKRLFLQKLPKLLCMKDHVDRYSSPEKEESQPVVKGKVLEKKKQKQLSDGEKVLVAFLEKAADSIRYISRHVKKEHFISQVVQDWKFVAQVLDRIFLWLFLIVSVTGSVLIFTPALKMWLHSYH
Sequence of hα6 + codon optimized hβ2 + hβ3^V9’S nAChR (Q15825 26-494): as the sequence (Q15825 26-494 N46K) above, with K21N counted along it
Sequence of hα6 + codon optimized hβ2 + hβ3^V9’S nAChR (P17787 26-502): as the sequence (P17787 26-502) above
Sequence of hα6 + codon optimized hβ2 + hβ3^V9’S nAChR (Q05901 22-458 V273S partner): as the sequence (Q05901 22-458 V273S partner) above

In the case of `CN1CCC[C@H]1c1cccnc1` [nicotine, L-nicotine], the peak current response in assay [1] was 15-30 nA; in [2], 15 ± 2 nA and 15-30 nA. Also, the current response entry in assay [3] is “did not elicit current responses”; in [4], “did not elicit current responses”; in assay [6] it was “did not yield current responses”; in assay [14], “did not elicit current responses”; in assay [15], “did not yield current responses”. Besides, the “current response relative to receptor with WT hβ2” value in [5] (codon optimized vs. WT hβ2) is listed as ~ 31 fold. The “peak current (Imax, mean ± SE)” value in assay [5] (oocytes clamped at −70 mV) is given as 469 ± 75 nA; in assay [7] it was 66 ± 20 nA; in [10], 118 ± 33 nA; in [11], 47 ± 9 nA; on hα6(N46K) + hβ4 nAChR, 78 ± 11 nA; in [12], 753 ± 137 nA. Moreover, the “peak current (Imax, mean ± SE)” value is 110 ± 22 nA at hα6(A112V) + hβ4 nAChR, 2076 ± 68 nA in [13] and 19 ± 2 nA on hα6(D92E) + hβ4 nAChR. Besides, the “Mean (±SE) peak current response” value came to 482 ± 59 nA in [8] and 126 ± 5 nA in assay [9].
